{"source": "ChEMBL document CHEMBL4043136", "about": "“Chiral-pool synthesis of 1,2,4-trisubstituted 1,4-diazepanes as novel σ1 receptor ligands” (Bioorg Med Chem, 2017)", "key": {"[1]": {"target": "Glucocorticoid receptor (Homo sapiens) (UniProt P04150)", "test": "Displacement of [3H]-dexamethasone from glucocorticoid receptor (unknown origin) at 1 uM"}, "Homo sapiens [2]": {"species_on_record": "Homo sapiens", "test": "Displacement of [3H]-alpha-5-methylene-ATP from purinergic P2x receptor (unknown origin) at 1 uM"}, "Homo sapiens [3]": {"species_on_record": "Homo sapiens", "test": "Displacement of [3H]-sp iperone from dopamine D4.2 receptor (unknown origin) at 1 uM"}, "[4]": {"target": "Platelet-activating factor receptor (Homo sapiens) (UniProt P25105)", "test": "Displacement of [3H]-PAF from platelet activating factor receptor (unknown origin) at 1 uM"}, "Homo sapiens [5]": {"species_on_record": "Homo sapiens", "test": "Displacement of [3H]-flunitrazepam from […] GABAA receptor (unknown origin) at 1 uM"}, "Homo sapiens [6]": {"species_on_record": "Homo sapiens", "test": "Displacement of [35S]-ATP-alpha-S from purinergic P2y receptor (unknown origin) at 1 uM"}, "CYP2C9": {"target": "CYP2C9 (Homo sapiens, UniProt P11712)", "sequence (P11712 whole entry)": "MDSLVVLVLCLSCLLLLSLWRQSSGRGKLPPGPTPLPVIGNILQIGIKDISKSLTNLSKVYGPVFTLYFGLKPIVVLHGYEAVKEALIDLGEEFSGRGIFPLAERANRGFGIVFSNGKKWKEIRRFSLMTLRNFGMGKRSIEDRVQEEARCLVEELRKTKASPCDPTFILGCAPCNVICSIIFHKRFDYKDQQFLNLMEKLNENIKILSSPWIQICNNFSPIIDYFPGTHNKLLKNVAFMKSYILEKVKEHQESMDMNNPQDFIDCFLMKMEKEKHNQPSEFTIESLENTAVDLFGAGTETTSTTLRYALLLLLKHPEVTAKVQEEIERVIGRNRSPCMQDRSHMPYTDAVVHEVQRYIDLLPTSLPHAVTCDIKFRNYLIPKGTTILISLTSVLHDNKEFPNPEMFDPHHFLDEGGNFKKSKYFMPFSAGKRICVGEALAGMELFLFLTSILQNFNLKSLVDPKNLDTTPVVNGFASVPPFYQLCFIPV", "test": "Inhibition on CYP2C9 (unknown origin) at 1 uM", "assay_type": "ADME"}, "Homo sapiens [7]": {"species_on_record": "Homo sapiens", "test": "Displacement of [3H]-CGP-39653 from glutamate […] receptor (unknown origin) at 1 uM"}, "[8]": {"target": "B2 bradykinin receptor (Homo sapiens) (UniProt P30411)", "sequence (P30411 whole entry)": "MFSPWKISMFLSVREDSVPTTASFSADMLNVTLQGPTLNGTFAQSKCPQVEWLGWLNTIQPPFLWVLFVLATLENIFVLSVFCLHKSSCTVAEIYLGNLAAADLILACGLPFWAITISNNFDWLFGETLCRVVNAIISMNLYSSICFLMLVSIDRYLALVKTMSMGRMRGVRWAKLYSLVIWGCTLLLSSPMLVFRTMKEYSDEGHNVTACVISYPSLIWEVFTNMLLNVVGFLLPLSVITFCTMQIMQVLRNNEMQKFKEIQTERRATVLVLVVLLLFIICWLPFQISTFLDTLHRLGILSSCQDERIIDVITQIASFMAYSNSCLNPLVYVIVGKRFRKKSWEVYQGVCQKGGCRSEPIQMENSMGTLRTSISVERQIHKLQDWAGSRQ", "test": "Displacement of [3H]-bradykinin from bradykinin B2 receptor (unknown origin) at 1 uM"}, "[9]": {"target": "Beta-2 adrenergic receptor (Homo sapiens) (UniProt P07550)", "test": "Displacement of [3H]-CGP-12177 from adrenergic beta2 receptor (unknown origin) at 1 uM"}, "[10]": {"target": "D(3) dopamine receptor (Homo sapiens) (UniProt P35462)", "test": "Displacement of [3H]-sp iperone from dopamine D3 receptor (unknown origin) at 1 uM"}, "CYP3A4": {"target": "CYP3A4 (Homo sapiens, UniProt P08684)", "sequence (P08684 whole entry)": "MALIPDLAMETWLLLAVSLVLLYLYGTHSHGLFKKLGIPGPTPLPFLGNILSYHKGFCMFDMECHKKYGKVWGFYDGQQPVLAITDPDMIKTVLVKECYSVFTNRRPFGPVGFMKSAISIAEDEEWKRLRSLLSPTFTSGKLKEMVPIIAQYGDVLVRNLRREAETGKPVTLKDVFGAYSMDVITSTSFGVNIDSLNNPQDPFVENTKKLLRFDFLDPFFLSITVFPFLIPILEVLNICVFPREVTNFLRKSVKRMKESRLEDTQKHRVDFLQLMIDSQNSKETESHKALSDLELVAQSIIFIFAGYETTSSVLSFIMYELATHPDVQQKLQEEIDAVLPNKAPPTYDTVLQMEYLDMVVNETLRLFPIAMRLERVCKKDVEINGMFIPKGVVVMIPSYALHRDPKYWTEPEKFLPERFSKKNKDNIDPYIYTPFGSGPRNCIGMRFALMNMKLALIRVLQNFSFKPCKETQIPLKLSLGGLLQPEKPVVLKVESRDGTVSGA", "test": "Inhibition on CYP3A4 (unknown origin) at 1 uM", "assay_type": "ADME"}, "[11]": {"target": "Adenosine receptor A1 (Homo sapiens) (UniProt P30542)", "sequence (P30542 whole entry)": "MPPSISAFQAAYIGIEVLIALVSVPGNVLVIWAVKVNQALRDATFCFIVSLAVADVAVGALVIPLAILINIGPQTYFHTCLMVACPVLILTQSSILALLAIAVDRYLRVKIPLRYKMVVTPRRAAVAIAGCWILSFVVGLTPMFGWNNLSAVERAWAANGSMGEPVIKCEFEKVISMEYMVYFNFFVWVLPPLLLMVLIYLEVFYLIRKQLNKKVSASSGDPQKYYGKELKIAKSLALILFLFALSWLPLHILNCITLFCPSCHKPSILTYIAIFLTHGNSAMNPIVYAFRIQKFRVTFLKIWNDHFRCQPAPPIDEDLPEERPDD", "test": "Displacement of [3H]-DPCPX from adenosine A1 receptor (unknown origin) at 1 uM"}, "Homo sapiens [12]": {"species_on_record": "Homo sapiens", "test": "Displacement of [3H]-CGP-54626 from […] GABAB receptor (unknown origin) at 1 uM"}, "[13]": {"target": "5-hydroxytryptamine receptor 1A (Homo sapiens) (UniProt P08908)", "test": "Displacement of [3H]-8-OH-DPAT from 5-HT1A receptor (unknown origin) at 1 uM"}, "CYP2C19": {"target": "CYP2C19 (Homo sapiens, UniProt P33261)", "sequence (P33261 whole entry)": "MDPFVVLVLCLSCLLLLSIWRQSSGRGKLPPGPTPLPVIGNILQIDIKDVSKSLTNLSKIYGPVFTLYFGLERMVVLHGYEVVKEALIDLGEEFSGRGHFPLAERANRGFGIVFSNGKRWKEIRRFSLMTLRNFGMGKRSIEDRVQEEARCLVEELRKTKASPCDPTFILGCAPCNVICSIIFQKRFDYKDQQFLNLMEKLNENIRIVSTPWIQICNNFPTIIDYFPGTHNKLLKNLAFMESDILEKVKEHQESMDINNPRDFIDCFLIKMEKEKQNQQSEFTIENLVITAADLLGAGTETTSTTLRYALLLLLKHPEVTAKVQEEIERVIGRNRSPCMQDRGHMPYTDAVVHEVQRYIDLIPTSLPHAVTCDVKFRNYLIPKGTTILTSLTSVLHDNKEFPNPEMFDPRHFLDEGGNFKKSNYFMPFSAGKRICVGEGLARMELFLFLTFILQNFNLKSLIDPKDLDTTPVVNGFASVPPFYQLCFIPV", "test": "Inhibition on CYP2C19 (unknown origin) at 1 uM", "assay_type": "ADME"}, "[14]": {"target": "Mu-type opioid receptor (Homo sapiens) (UniProt P35372)", "test": "Displacement of [3H]-d iprenorphine from mu opioid receptor (unknown origin) at 1 uM"}, "[15]": {"target": "D(2) dopamine receptor (Homo sapiens) (UniProt P14416)", "test": "Displacement of [3H]-sp iperone from dopamine D2 receptor (unknown origin) at 1 uM"}, "[16]": {"target": "5-hydroxytryptamine receptor 3A (Homo sapiens) (UniProt P46098)", "sequence (P46098 whole entry)": "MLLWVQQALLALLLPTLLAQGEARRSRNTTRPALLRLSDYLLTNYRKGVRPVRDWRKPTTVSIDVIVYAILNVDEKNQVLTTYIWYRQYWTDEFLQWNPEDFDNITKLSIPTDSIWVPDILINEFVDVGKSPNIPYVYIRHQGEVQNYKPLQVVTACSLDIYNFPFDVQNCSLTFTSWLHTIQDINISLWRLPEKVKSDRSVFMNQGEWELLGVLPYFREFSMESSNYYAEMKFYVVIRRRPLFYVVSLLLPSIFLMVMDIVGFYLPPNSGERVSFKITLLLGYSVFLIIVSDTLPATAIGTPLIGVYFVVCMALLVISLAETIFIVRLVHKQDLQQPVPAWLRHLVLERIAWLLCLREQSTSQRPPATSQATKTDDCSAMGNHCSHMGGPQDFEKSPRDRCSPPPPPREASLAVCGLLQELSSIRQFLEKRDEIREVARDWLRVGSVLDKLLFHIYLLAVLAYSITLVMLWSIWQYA", "test": "Displacement of [3H]-GR-65630 from 5-HT3 receptor (unknown origin) at 1 uM"}, "Mus musculus [17]": {"system": "Mus musculus", "test": "Toxicity in mouse at 1 mg/kg, ip by Irwin test", "assay_type": "organism-based", "conditions": "in vivo"}, "[18]": {"target": "Sigma non-opioid intracellular receptor 1 (Cavia porcellus) (UniProt Q60492)", "sequence (Q60492 whole entry)": "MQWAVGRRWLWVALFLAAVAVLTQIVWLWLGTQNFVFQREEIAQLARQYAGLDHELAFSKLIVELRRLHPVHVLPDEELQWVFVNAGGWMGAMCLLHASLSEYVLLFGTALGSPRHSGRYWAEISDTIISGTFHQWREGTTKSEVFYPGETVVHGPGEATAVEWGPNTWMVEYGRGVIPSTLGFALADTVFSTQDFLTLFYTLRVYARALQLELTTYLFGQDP", "test": "Agonist activity at sigma1 receptor assessed as potentiation of electrically stimulated contractions of the guinea pig vas deferens relative to (S)-3-PPP"}, "Albumin": {"target": "Albumin (Homo sapiens, UniProt P02768)", "test": "Binding affinity to human serum albumin at 60 uM", "assay_type": "ADME", "conditions": "isolated protein"}, "[19]": {"target": "Glutamate [NMDA] receptor (Homo sapiens) (UniProt Q05586+Q12879+Q13224+O15399+O60391+Q14957+Q8TCU5)", "test": "Displacement of [3H]-MDL-105519 from glutamate NMDA receptor glycine binding site (unknown origin) at 1 uM"}, "Mus musculus [20]": {"system": "Mus musculus", "test": "Cognition enhancing effect in mouse assessed as reversal of scopolamine-induced amnesia at 30 mg/kg, ip", "assay_type": "functional, organism-based"}, "[21]": {"test": "Metabolic stability in rat microsomes assessed as amount of parent compound remaining after 5 mins", "assay_type": "ADME, Microsome", "conditions": "read-out: Stability"}, "[22]": {"target": "Histamine H1 receptor (Homo sapiens) (UniProt P35367)", "sequence (P35367 whole entry)": "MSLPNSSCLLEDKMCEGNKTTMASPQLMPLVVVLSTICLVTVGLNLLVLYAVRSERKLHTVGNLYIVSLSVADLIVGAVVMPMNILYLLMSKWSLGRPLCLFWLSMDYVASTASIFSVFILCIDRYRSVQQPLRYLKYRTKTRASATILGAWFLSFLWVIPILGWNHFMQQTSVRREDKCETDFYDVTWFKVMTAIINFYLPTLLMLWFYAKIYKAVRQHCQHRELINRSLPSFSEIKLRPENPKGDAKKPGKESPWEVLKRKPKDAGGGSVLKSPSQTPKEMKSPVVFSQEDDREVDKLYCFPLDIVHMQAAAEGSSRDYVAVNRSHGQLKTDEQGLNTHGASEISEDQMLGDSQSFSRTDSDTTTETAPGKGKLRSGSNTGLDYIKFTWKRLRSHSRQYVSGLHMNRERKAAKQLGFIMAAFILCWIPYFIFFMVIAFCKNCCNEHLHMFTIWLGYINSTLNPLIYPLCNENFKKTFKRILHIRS", "test": "Displacement of [3H]-Pyrilamine from histamine H1 receptor (unknown origin) at 1 uM"}, "[23]": {"target": "Neuromedin-B receptor (Homo sapiens) (UniProt P28336)", "test": "Displacement of [125I]-(Tyr4)-bombesin from bombesin BB1 receptor (unknown origin) at 1 uM"}, "[24]": {"target": "Delta-type opioid receptor (Homo sapiens) (UniProt P41143)", "test": "Displacement of [3H]-naltrindole from delta opioid receptor (unknown origin) at 1 uM"}, "[25]": {"target": "Muscarinic acetylcholine receptor M3 (Homo sapiens) (UniProt P20309)", "sequence (P20309 whole entry, looked up)": "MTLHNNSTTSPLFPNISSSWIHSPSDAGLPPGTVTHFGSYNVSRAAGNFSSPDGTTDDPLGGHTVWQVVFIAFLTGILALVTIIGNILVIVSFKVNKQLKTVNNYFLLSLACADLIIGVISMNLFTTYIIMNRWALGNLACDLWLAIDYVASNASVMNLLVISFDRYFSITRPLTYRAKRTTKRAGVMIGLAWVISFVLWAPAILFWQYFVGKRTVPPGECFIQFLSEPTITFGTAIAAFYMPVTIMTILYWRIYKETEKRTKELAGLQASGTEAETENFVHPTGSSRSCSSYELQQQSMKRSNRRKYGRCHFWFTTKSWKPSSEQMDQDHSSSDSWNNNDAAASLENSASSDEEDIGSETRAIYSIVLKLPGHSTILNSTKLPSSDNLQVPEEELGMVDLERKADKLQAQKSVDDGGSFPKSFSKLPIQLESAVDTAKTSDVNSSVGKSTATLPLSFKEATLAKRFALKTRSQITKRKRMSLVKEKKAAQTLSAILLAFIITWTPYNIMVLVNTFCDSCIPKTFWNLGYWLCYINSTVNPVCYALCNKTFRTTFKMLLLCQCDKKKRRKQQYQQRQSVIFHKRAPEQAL", "test": "Displacement of [3H]-N-methylscopolamine from muscarinic M3 receptor (unknown origin) at 1 uM"}, "[26]": {"target": "Endothelin receptor type B (Homo sapiens) (UniProt P24530)", "sequence (P24530 whole entry)": "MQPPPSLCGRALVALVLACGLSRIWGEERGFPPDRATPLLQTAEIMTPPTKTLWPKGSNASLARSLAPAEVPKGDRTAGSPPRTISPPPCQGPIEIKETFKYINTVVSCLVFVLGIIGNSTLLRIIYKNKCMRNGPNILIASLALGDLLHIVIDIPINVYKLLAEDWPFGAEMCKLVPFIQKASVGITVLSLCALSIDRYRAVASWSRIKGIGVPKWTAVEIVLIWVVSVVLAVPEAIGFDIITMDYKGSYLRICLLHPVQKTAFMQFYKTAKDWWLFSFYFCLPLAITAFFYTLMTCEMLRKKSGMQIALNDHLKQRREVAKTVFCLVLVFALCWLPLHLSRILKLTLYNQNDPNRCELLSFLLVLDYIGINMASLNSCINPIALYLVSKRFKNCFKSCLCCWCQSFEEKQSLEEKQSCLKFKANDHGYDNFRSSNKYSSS", "test": "Displacement of [125I]-endothelin-1 from endothelin ETB receptor (unknown origin) at 1 uM"}, "[27]": {"target": "Adenosine receptor A2a (Homo sapiens) (UniProt P29274)", "test": "Displacement of [3H]-CGS21680 from adenosine A2A receptor (unknown origin) at 1 uM"}, "[28]": {"target": "Histamine H3 receptor (Homo sapiens) (UniProt Q9Y5N1)", "sequence (Q9Y5N1 whole entry)": "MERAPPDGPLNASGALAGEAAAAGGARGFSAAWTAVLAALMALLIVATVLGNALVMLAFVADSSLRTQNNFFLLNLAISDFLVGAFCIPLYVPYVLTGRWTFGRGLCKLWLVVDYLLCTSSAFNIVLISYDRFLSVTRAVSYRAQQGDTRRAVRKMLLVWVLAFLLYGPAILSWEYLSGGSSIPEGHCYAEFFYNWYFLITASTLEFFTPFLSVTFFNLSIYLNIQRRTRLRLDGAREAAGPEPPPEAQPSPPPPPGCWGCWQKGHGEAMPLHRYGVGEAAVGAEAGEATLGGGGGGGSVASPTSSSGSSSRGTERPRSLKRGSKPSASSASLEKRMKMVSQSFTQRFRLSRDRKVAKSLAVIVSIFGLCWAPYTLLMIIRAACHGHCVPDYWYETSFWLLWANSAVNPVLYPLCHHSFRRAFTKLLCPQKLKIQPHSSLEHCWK", "test": "Displacement of [3H]-R(-)-alpha-methylhistamine from histamine H3 receptor (unknown origin) at 1 uM"}, "[29]": {"target": "Alpha-1D adrenergic receptor (Homo sapiens) (UniProt P25100)", "test": "Displacement of [3H]-prazosin from adrenergic alpha1D receptor (unknown origin) at 1 uM"}, "[30]": {"target": "Sigma non-opioid intracellular receptor 1 (Cavia porcellus, UniProt Q60492)", "sequence (Q60492 whole entry)": "as the sequence (Q60492 whole entry) above", "test": "Displacement of [3H]-pentazocine from sigma1 receptor in guinea pig brain membranes after 120 mins by liquid scintillation counting", "assay_type": "cell membranes, Membrane"}, "[31]": {"test": "Metabolic stability in mouse microsomes assessed as amount of parent compound remaining after 5 mins", "assay_type": "ADME, Microsome", "conditions": "read-out: Stability"}}, "note": "The source made the active and inactive calls. The rule behind the calls is not given here."}
{"smiles": "COc1ccc(CN2CCCN(Cc3ccccc3)[C@@H](C)C2)cc1", "values": [{"measurement": "inhibition", "setting": "[1]", "result": "inactive"}, {"measurement": "inhibition", "setting": "Homo sapiens [2]", "result": "inactive"}, {"measurement": "inhibition", "setting": "Homo sapiens [3]", "result": "inactive"}, {"measurement": "inhibition", "setting": "[4]", "result": "inactive"}, {"measurement": "inhibition", "setting": "Homo sapiens [5]", "result": "inactive"}, {"measurement": "inhibition", "setting": "Homo sapiens [6]", "result": "inactive"}, {"measurement": "inhibition at 1 µM", "setting": "CYP2C9", "result": 0, "unit": "%"}, {"measurement": "inhibition", "setting": "Homo sapiens [7]", "result": "inactive"}, {"measurement": "inhibition", "setting": "[8]", "result": "inactive"}, {"measurement": "inhibition", "setting": "[9]", "result": "inactive"}, {"measurement": "inhibition", "setting": "[10]", "result": "inactive"}, {"measurement": "inhibition at 1 µM", "setting": "CYP3A4", "result": 7, "unit": "%"}, {"measurement": "inhibition", "setting": "[11]", "result": "inactive"}, {"measurement": "inhibition", "setting": "Homo sapiens [12]", "result": "inactive"}, {"measurement": "inhibition", "setting": "[13]", "result": "inactive"}, {"measurement": "inhibition at 1 µM", "setting": "CYP2C19", "result": 38, "unit": "%"}, {"measurement": "inhibition", "setting": "[14]", "result": "inactive"}, {"measurement": "inhibition", "setting": "[15]", "result": "inactive"}, {"measurement": "inhibition", "setting": "[16]", "result": "inactive"}, {"measurement": "Activity", "setting": "Mus musculus [17]", "result": "Non-Toxic"}, {"measurement": "Activity", "setting": "[18]", "result": "Dose-dependent effect"}, {"measurement": "PB", "setting": "Albumin", "result": 1.6, "unit": "%"}, {"measurement": "inhibition", "setting": "[19]", "result": "inactive"}, {"measurement": "Activity", "setting": "Mus musculus [20]", "result": "Active"}, {"measurement": "remaining at 5 min", "setting": "[21]", "result": "< 50", "unit": "%"}, {"measurement": "inhibition", "setting": "[22]", "result": "inactive"}, {"measurement": "inhibition", "setting": "[23]", "result": "inactive"}, {"measurement": "inhibition", "setting": "[24]", "result": "inactive"}, {"measurement": "inhibition", "setting": "[25]", "result": "inactive"}, {"measurement": "inhibition", "setting": "[26]", "result": "inactive"}, {"measurement": "inhibition", "setting": "[27]", "result": "inactive"}, {"measurement": "inhibition", "setting": "[28]", "result": "inactive"}, {"measurement": "inhibition", "setting": "[29]", "result": "inactive"}, {"measurement": "Ki", "setting": "[30]", "result": 0.86, "unit": "nM"}, {"measurement": "remaining at 5 min", "setting": "[31]", "result": "< 50", "unit": "%"}]}
